pIC50: −log10 of the molar value.
Tests used:
[1] = biological target: T1, catalytic domain of human Bub1 (amino acids 704-1085) (Homo sapiens, UniProt O43683); assay: Bub1 kinase assay (TR-FRET); assay type: biochemical; conditions: 10 μM ATP, avg, read-out: Bub1 avg (IC50 [mol/l])
T1 construct: catalytic domain of human Bub1 (amino acids 704-1085); His6 (N); made in house; host or cells: insect cells (Hi5)
How it was run: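 Readout is the 665/620 nm TR-FRET ratio from anti-phosphoserine antibody, Eu-labelled anti-mouse IgG and streptavidin-XL665, scaled between no-enzyme and uninhibited controls. Reaction: 1 μM biotinylated peptide, 10 μM ATP, 60 min, 22 °C, after 15 min compound preincubation with His6-Bub1 (704-1085, insect-expressed, ~200 ng/ml).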

[2] = biological target: T2, CDK2/CycE (Homo sapiens, UniProt P24941); assay: CDK2/CycE kinase assay (TR-FRET); assay type: biochemical; conditions: avg, read-out: CDK2 avg (IC50 [mol/l])
T2 construct: GST; purchased ProQinase GmbH (Freiburg, Germany); host or cells: insect cells (Sf9)
How it was run: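 GST-tagged human CDK2 and CycE from Sf9 cells, preincubated 15 min with compound, then 25 min at 22° C. with 10 μM ATP and 0.75 μM biotinylated Rb-derived peptide (final). Phospho-substrate read by TR-FRET (anti-pRB pSer807/pSer811, Eu anti-mouse IgG, streptavidin-XL665), 665/620 nm ratio, normalised to no-inhibitor and no-enzyme controls.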

T1 sequence (O43683 704-1085): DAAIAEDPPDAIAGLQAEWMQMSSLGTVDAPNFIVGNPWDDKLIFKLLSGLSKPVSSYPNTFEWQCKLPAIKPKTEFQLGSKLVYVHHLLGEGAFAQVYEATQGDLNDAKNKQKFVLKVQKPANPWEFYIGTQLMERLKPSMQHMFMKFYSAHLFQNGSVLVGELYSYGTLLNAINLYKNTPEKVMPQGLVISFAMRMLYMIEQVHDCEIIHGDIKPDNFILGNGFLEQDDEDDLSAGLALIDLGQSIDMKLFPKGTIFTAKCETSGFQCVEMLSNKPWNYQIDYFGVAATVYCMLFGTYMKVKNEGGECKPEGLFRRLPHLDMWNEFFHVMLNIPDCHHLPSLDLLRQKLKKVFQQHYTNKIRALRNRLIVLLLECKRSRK

Structure (SMILES)	pIC50 [1]	pIC50 [2]
Cc1nsc(Nc2cnc(C(F)(F)F)cn2)c1C(=O)Nc1ccc(F)c(OC2CCN(C(=O)OC(C)(C)C)CC2)c1 [Example 229, tert-butyl 4-(2-fluoro-5-{[(3-methyl-5-{[5-(trifluoromethyl)pyrazin-2-yl]amino}-1,2-thiazol-4-yl)carbonyl]amino}phenoxy)piperidine-1-carboxylate]	< 4.70	< 4.70
Cc1nsc(Nc2cnc3ccccc3n2)c1C(=O)Nc1ccc(NC2CCN(C(=O)OC(C)(C)C)CC2)nc1 [Example 234, tert-butyl 4-{[5-({[3-methyl-5-(quinoxalin-2-ylamino)-1,2-thiazol-4-yl]carbonyl}amino)pyridin-2-yl]amino}piperidine-1-carboxylate]	< 4.70	< 4.70
COc1ccc(NC(=O)c2c(C)nsc2Nc2cnc3ccccc3n2)c(CC#N)n1 [Example 235, N-[2-(cyanomethyl)-6-methoxypyridin-3-yl]-3-methyl-5-(quinoxalin-2-ylamino)-1,2-thiazole-4-carboxamide]	< 4.70	< 4.70
COC(=O)c1cc(NC(=O)c2c(C)nsc2Nc2cnc3ccccc3n2)cc(C(=O)OC)c1 [Example 237, dimethyl 5-({[3-methyl-5-(quinoxalin-2-ylamino)-1,2-thiazol-4-yl]carbonyl}amino)isophthalate]	< 4.70	< 4.70
Cc1nsc(Nc2cnc3ccccc3n2)c1C(=O)Nc1ccc(NCC2CCN(C(=O)OC(C)(C)C)CC2)nc1 [Example 238, tert-butyl 4-({[5-({[3-methyl-5-(quinoxalin-2-ylamino)-1,2-thiazol-4-yl]carbonyl}amino)pyridin-2-yl]amino}methyl)piperidine-1-carboxylate]	< 4.70	< 4.70
Cc1nsc(Nc2cc(C#N)ccn2)c1C(=O)Nc1cccc(C(=O)OC(C)(C)C)c1 [Example 239, tert-butyl 3-[({5-[(4-cyanopyridin-2-yl)amino]-3-methyl-1,2-thiazol-4-yl}carbonyl)amino]benzoate]	< 4.70	< 4.70
Cc1nsc(Nc2ccc(C#N)cn2)c1C(=O)Nc1cccc(C(=O)OC(C)(C)C)c1 [Example 240, tert-butyl 3-[({5-[(5-cyanopyridin-2-yl)amino]-3-methyl-1,2-thiazol-4-yl}carbonyl)amino]benzoate]	< 4.70	< 4.70
Cc1nsc(Nc2cnc3ccccc3n2)c1C(=O)Nc1ccc(NC2CCCN(C(=O)OC(C)(C)C)C2)nc1 (stereo not drawn) [Example 241, tert-butyl 3-{[5-({[3-methyl-5-(quinoxalin-2-ylamino)-1,2-thiazol-4-yl]carbonyl}amino)pyridin-2-yl]amino}piperidine-1-carboxylate]	< 4.70	< 4.70

Results, then the molecule that gave them:

pIC50 [1]	pIC50 [2]	Structure (SMILES)
< 4.70	< 4.70	Cc1nsc(Nc2cc(C#N)ccn2)c1C(=O)Nc1ccc(Oc2cccc(C(F)(F)F)c2)nc1 [Example 230, 5-[(4-cyanopyridin-2-yl)amino]-3-methyl-N-{6-[3-(trifluoromethyl)phenoxy]pyridin-3-yl}-1,2-thiazole-4-carboxamide]
< 4.70	< 4.70	Cc1nsc(Nc2cnc3ccccc3n2)c1C(=O)Nc1ccc(Oc2cccnc2)nc1 [Example 231, 3-methyl-N-[6-(pyridin-3-yloxy)pyridin-3-yl]-5-(quinoxalin-2-ylamino)-1,2-thiazole-4-carboxamide]
< 4.70	< 4.70	Cc1nsc(Nc2cnc3ccccc3n2)c1C(=O)Nc1ccc(Oc2ccc(SC(F)(F)F)cc2)nc1 [Example 233, 3-methyl-5-(quinoxalin-2-ylamino)-N-(6-{4-[(trifluoromethyl)sulfanyl]phenoxy}pyridin-3-yl)-1,2-thiazole-4-carboxamide]
< 4.70	< 4.70	Cc1nsc(Nc2cnc3ccccc3n2)c1C(=O)Nc1ccc(NCCC(=O)OC(C)(C)C)nc1 [Example 236, tert-butyl N-[5-({[3-methyl-5-(quinoxalin-2-ylamino)-1,2-thiazol-4-yl]carbonyl}amino)pyridin-2-yl]-beta-alaninate]
